Reference: patent US10160747B2, “Compounds and methods for kinase modulation, and indications therefor” (Plexxikon Inc., priority 2016, dated 2018)

Tests used:
FLT3-D835Y = target: T1, FLT3-D835Y (Homo sapiens, UniProt P36888, D835Y); test: FLT3-D835Y recombinant enzyme kinase assay (AlphaScreen); format: biochemical; conditions: 8 pt, GMean
T1 construct: purchased Invitrogen PV3967
T1 sequence (P36888 27-993 D835Y): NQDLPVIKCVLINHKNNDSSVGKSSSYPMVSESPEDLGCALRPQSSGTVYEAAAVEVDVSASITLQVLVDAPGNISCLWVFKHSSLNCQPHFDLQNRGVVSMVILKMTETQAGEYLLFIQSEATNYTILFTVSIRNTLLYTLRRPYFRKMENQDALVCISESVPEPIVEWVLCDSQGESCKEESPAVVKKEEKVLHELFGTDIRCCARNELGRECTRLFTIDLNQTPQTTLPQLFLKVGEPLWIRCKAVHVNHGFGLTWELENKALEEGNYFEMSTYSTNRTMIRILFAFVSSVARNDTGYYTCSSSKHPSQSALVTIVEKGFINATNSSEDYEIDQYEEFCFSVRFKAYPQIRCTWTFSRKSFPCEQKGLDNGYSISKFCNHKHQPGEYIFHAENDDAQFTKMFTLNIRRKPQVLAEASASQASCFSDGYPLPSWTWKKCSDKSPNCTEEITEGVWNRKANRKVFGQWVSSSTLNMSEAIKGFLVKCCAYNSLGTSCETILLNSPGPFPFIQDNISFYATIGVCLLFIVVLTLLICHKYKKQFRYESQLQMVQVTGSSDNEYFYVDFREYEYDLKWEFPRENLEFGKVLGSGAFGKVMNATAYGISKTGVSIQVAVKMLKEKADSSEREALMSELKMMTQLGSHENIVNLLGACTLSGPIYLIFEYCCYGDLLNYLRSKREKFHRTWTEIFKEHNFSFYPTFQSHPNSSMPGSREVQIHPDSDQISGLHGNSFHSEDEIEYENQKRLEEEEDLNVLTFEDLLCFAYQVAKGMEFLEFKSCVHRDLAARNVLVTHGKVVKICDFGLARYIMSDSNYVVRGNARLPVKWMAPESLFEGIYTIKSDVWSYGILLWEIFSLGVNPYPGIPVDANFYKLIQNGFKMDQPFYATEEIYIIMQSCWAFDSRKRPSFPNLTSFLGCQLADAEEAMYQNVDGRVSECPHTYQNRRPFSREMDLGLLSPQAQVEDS
How it was run: (§1)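 Enzyme plus biotinylated poly(Glu4-Tyr) substrate (30 nM) mixed with compound, then ATP added. Donor beads went in for 20 min at room temperature, then PY20 acceptor beads for 60 min. AlphaScreen read; ATP was 10 μM for FLT3-ITD/D835Y and 100 μM for c-KIT.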

c-KIT = target: T2, c-KIT (Homo sapiens, UniProt P10721); test: c-KIT recombinant enzyme kinase assay (AlphaScreen); format: biochemical; conditions: 100 ATP, 8 pt
T2 construct: purchased Millipore 14-559K
T2 sequence (P10721 26-976): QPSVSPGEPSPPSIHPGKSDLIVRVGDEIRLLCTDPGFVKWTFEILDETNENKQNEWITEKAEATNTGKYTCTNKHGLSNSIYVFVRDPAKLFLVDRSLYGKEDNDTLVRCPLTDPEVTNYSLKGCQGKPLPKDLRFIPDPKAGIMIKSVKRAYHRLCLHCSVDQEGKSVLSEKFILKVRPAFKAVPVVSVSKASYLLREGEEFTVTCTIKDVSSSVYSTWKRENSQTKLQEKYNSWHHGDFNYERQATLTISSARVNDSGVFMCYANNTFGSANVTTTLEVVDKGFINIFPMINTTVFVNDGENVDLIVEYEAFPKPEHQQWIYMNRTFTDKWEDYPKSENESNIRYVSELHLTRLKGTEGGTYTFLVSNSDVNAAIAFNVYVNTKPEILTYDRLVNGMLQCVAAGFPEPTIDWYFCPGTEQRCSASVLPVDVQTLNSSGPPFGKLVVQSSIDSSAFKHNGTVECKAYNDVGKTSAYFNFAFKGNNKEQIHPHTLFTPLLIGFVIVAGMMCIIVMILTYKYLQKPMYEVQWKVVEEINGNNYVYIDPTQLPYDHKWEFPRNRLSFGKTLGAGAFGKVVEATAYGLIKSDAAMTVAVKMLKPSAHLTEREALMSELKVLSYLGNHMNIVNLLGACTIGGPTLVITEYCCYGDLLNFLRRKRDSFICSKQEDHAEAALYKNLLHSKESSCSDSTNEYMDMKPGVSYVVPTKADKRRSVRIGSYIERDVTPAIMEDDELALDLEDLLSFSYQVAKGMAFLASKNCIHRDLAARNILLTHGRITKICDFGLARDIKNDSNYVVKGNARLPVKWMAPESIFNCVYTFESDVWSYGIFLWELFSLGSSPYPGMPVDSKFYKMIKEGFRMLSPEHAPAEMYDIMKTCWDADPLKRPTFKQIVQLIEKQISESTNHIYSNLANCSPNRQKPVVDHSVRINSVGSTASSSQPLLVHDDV
How it was run: as §1

| SMILES | IC50 (FLT3-D835Y) [µM] | IC50 (c-KIT) [µM] |
| --- | --- | --- |
| Cn1cc(Nc2ncc(-c3ccc(CC(=O)Nc4cc(C(F)(F)F)ncn4)cc3)cn2)cn1 [Compound P-0135, 2-[4-[2-[(1-methylpyrazol-4-yl)amino]pyrimidin-5-yl]phenyl]-N-[6-(trifluoromethyl)pyrimidin-4-yl]acetamide] | 0.0001 to 10 | 0.0001 to 10 |
| Cn1cc(Nc2ncc(-c3ccc(CC(=O)Nc4cncc(C(F)(F)F)c4)cc3)cn2)cn1 [Compound P-0136, 2-[4-[2-[(1-methylpyrazol-4-yl)amino]pyrimidin-5-yl]phenyl]-N-[5-(trifluoromethyl)-3-pyridyl]acetamide] | 0.0001 to 10 | 0.0001 to 10 |
| Cn1cc(Nc2ncc(-c3ccc(CC(=O)Nc4ccnc(C(F)(F)F)n4)cc3)cn2)cn1 [Compound P-0137, 2-[4-[2-[(1-methylpyrazol-4-yl)amino]pyrimidin-5-yl]phenyl]-N-[2-(trifluoromethyl)pyrimidin-4-yl]acetamide] | 0.0001 to 10 | 0.0001 to 10 |
| COc1ncc(NC(=O)Cc2ccc(-c3cnc(Nc4cnn(C)c4)nc3)cc2)cc1C(F)(F)F [Compound P-0138, N-[6-methoxy-5-(trifluoromethyl)-3-pyridyl]-2-[4-[2-[(1-methylpyrazol-4-yl)amino]pyrimidin-5-yl]phenyl]acetamide] | 0.0001 to 10 | 0.0001 to 10 |
| Cn1cc(Nc2ncc(-c3ccc(CC(=O)Nc4cc(C(F)(F)F)ccn4)cc3)cn2)cn1 [Compound P-0139, 2-[4-[2-[(1-methylpyrazol-4-yl)amino]pyrimidin-5-yl]phenyl]-N-[4-(trifluoromethyl)-2-pyridyl]acetamide] | 0.0001 to 10 | 0.0001 to 10 |
| Cc1ncc(NC(=O)Cc2ccc(-c3cnc(Nc4cnn(C)c4)nc3)cc2)cc1C(F)(F)F [Compound P-0140, 2-[4-[2-[(1-methylpyrazol-4-yl)amino]pyrimidin-5-yl]phenyl]-N-[6-methyl-5-(trifluoromethyl)-3-pyridyl]acetamide] | 0.0001 to 10 | 0.0001 to 10 |
| Cn1cc(Nc2ncc(-c3ccc(CC(=O)Nc4cccc(C(F)(F)F)c4)cc3)cn2)cn1 [Compound P-0141, 2-[4-[2-[(1-methylpyrazol-4-yl)amino]pyrimidin-5-yl]phenyl]-N-[3-(trifluoromethyl)phenyl]acetamide] | 0.0001 to 10 | 0.0001 to 10 |
| Cn1cc(Nc2ncc(-c3ccc(CC(=O)Nc4ccc(C(F)(F)F)c(F)c4)cc3)cn2)cn1 [Compound P-0142, N-[3-fluoro-4-(trifluoromethyl)phenyl]-2-[4-[2-[(1-methylpyrazol-4-yl)amino]pyrimidin-5-yl]phenyl]acetamide] | 0.0001 to 10 | 0.0001 to 10 |
| Cn1cc(Nc2ncc(-c3ccc(CC(=O)Nc4ccc(C(C)(C)C)nc4)cc3)cn2)cn1 [Compound P-0143, N-(6-tert-butyl-3-pyridyl)-2-[4-[2-[(1-methylpyrazol-4-yl)amino]pyrimidin-5-yl]phenyl]acetamide] | 0.0001 to 10 | 0.0001 to 10 |

Second part, the compound after the results:

| IC50 (FLT3-D835Y) [µM] | IC50 (c-KIT) [µM] | SMILES |
| --- | --- | --- |
| 0.0001 to 10 | 0.0001 to 10 | Cn1cnc(Nc2ncc(-c3ccc(CC(=O)Nc4cc(C(C)(F)F)ccn4)c(F)c3)cn2)c1 [Compound P-0102, N-[4-(1,1-difluoroethyl)-2-pyridyl]-2-[2-fluoro-4-[2-[(1-methylimidazol-4-yl)amino]pyrimidin-5-yl]phenyl]acetamide] |
| 0.0001 to 10 | 0.0001 to 10 | Cn1cnc(Nc2ncc(-c3ccc(CC(=O)Nc4cncc(C(C)(F)F)c4)c(F)c3)cn2)c1 [Compound P-0103, N-[5-(1,1-difluoroethyl)-3-pyridyl]-2-[2-fluoro-4-[2-[(1-methylimidazol-4-yl)amino]pyrimidin-5-yl]phenyl]acetamide] |
| 0.0001 to 10 | 0.0001 to 10 | Cn1cc(Nc2ncc(-c3ccc(CC(=O)Nc4cnc(F)c(C(C)(F)F)c4)cc3)cn2)cn1 [Compound P-0104, N-[5-(1,1-difluoroethyl)-6-fluoro-3-pyridyl]-2-[4-[2-[(1-methylpyrazol-4-yl)amino]pyrimidin-5-yl]phenyl]acetamide] |
| 0.0001 to 10 | 0.0001 to 10 | Cn1cc(Nc2ncc(-c3ccc(CC(=O)Nc4cnc(F)c(C(C)(F)F)c4)c(F)c3)cn2)cn1 [Compound P-0105, N-[5-(1,1-difluoroethyl)-6-fluoro-3-pyridyl]-2-[2-fluoro-4-[2-[(1-methylpyrazol-4-yl)amino]pyrimidin-5-yl]phenyl]acetamide] |
| 0.0001 to 10 | 0.0001 to 10 | Cn1cc(Nc2ncc(-c3ccc(CC(=O)Nc4ccc(C(F)(F)F)cn4)c(F)c3)cn2)cn1 [Compound P-0106, 2-[2-fluoro-4-[2-[(1-methylpyrazol-4-yl)amino]pyrimidin-5-yl]phenyl]-N-[5-(trifluoromethyl)-2-pyridyl]acetamide] |
| 0.0001 to 10 | 0.0001 to 10 | Cn1cc(Nc2ncc(-c3ccc(CC(=O)Nc4cc(Cl)c(C5CC5)cn4)c(F)c3)cn2)cn1 [Compound P-0107, N-(4-chloro-5-cyclopropyl-2-pyridyl)-2-[2-fluoro-4-[2-[(1-methylpyrazol-4-yl)amino]pyrimidin-5-yl]phenyl]acetamide] |
| 0.0001 to 10 | 0.0001 to 10 | Cn1cc(Nc2ncc(-c3ccc(CC(=O)Nc4ccc(C(C)(C)C#N)nc4)c(F)c3)cn2)cn1 [Compound P-0108, N-[6-(1-cyano-1-methyl-ethyl)-3-pyridyl]-2-[2-fluoro-4-[2-[(1-methylpyrazol-4-yl)amino]pyrimidin-5-yl]phenyl]acetamide] |
| 0.0001 to 10 | 0.0001 to 10 | Cn1cc(Nc2ncc(-c3ccc(CC(=O)Nc4ccc(C(F)(F)F)cn4)cc3)cn2)cn1 [Compound P-0109, 2-[4-[2-[(1-methylpyrazol-4-yl)amino]pyrimidin-5-yl]phenyl]-N-[5-(trifluoromethyl)-2-pyridyl]acetamide] |
| 0.0001 to 10 | 0.0001 to 10 | Cn1cc(Nc2ncc(-c3ccc(CC(=O)Nc4ccc(C(F)(F)F)nc4)c(F)c3)cn2)cn1 [Compound P-0110, 2-[2-fluoro-4-[2-[(1-methylpyrazol-4-yl)amino]pyrimidin-5-yl]phenyl]-N-[6-(trifluoromethyl)-3-pyridyl]acetamide] |
| 0.0001 to 10 | 0.0001 to 10 | CCc1cncc(NC(=O)Cc2ccc(-c3cnc(Nc4cnn(C)c4)nc3)cc2F)c1 [Compound P-0111, N-(5-ethyl-3-pyridyl)-2-[2-fluoro-4-[2-[(1-methylpyrazol-4-yl)amino]pyrimidin-5-yl]phenyl]acetamide] |
| 0.0001 to 10 | 0.0001 to 10 | Cn1cc(Nc2ncc(-c3ccc(CC(=O)Nc4cccnc4)cc3)cn2)cn1 [Compound P-0131, 2-[4-[2-[(1-methylpyrazol-4-yl)amino]pyrimidin-5-yl]phenyl]-N-(3-pyridyl)acetamide] |
| 0.0001 to 10 | 0.0001 to 10 | COc1cncc(NC(=O)Cc2ccc(-c3cnc(Nc4cnn(C)c4)nc3)cc2)c1 [Compound P-0133, N-(5-methoxy-3-pyridyl)-2-[4-[2-[(1-methylpyrazol-4-yl)amino]pyrimidin-5-yl]phenyl]acetamide] |
| 0.0001 to 10 | 0.0001 to 10 | Cn1cc(Nc2ncc(-c3ccc(CC(=O)Nc4ccnc(C(F)(F)F)c4)cc3)cn2)cn1 [Compound P-0134, 2-[4-[2-[(1-methylpyrazol-4-yl)amino]pyrimidin-5-yl]phenyl]-N-[2-(trifluoromethyl)-4-pyridyl]acetamide] |
